In EP1129354B1, “A METHOD FOR DETERMINING A MIMOTOPE SEQUENCE” (PEPSCAN SYSTEMS B.V., priority 1998, dated 2000):

The substances below were run on antibody (assay: Pepscan ELISA, replacement analyses and lengthening (Example-4)). Conditions: value is the antibody concentration.
Type: binding
Description: In addition to random minipepscan libraries mimotopes can also be identified from standard pepscan libraries. These libraries contain all overlapping 12-mers (or shorter/longer) covering the linear sequence of a known protein (Slootstra et al., 1995a).
(§1) In a replacement analysis the binding activity of complete series of substitutions analogs of lead peptides, in which each position is replaced by each of the other 19 natural L-amino acids, is investigated in detail. In addition, it is possible to use the 20 D-amino acids as well as other available non-natural amino acids. Substitutions that result in improved binding are combined into new sequences of building blocks. These new sequences are again tested in a 2nd replacement analysis. If necessary more rounds of replacement analyses are performed. After each round of a replacement analyses the antibody (or other soluble receptor) concentration can be lowered to obtain maximal binding activity (e.g. from 100 µg/ml to 0.01 µg/ml after 2 rounds of replacement-analyses, as shown in example-1).
(§2) Notes for the examples: • the 10 µg/ml, 1 µg/ml etc. denote the antibody concentration. • The line "improved position-01" etc. means that this change in amino acid (is underlined) improves binding activity in pepscan elisa at given antibody concentration. Positions that could not be improved are not mentioned (e.g. position-08 in first replacement-net of example-1, i.e. the original I at position 8 gives the highest activity).
In example-4, a lead peptide was identified through standard pepscan analysis, i.e. the antibody was tested on all overlapping 12-mers covering the linear sequence of the protein. The following two rounds of replacement analyses were done as discussed in example-1. In addition, the mimotope was lengthened to the left and right (3 amino acids, this can be further lengthened) through additional replacement analyses.

Substance | activity at
AVMIKLILVNYR | activity at ≥ 5.0 µg/ml
APPIKLIRVNYR | activity at ≥ 0.5 µg/ml
AVPIKLILVNFR | activity at ≥ 5.0 µg/ml
YIPIKLIRVNYR | activity at ≥ 0.5 µg/ml
IKLIRVNYRMEP | activity at ≥ 0.5 µg/ml
IKLIRVNYRMQN | activity at ≥ 0.5 µg/ml
RIYYPPIKLIRV | activity at ≥ 0.5 µg/ml
KPYYPPIKLIRV | activity at ≥ 0.5 µg/ml
KIYYPPISLIRV | activity at ≥ 0.5 µg/ml
KIYYPPIKLIRV [lengthened left] | activity at ≥ 1.0 µg/ml
RPWYPPISLIRV [combination impr., replacement analysis-III] | activity at ≥ 0.1 µg/ml
IKLIRVNYRCEN [combination impr., replacement analysis-IV] | activity at ≥ 0.1 µg/ml
YPPIKLIRVNYR | activity at ≥ 0.1 µg/ml
IKLIRVNYRCQP | activity at ≥ 0.5 µg/ml
RPWYPPISLIRVNYRCEN [combination total, 18-mer mimotope] | activity at ≥ 0.01 µg/ml
AVMIKLIRVNFR | activity at ≥ 5.0 µg/ml
IKLIRVNYRMQP [lengthened right] | activity at ≥ 1.0 µg/ml
AIMIKLILVNFR | activity at ≥ 5.0 µg/ml
AVMIKLILVNFR | activity at ≥ 5.0 µg/ml
RVMIKLILVNFR | activity at ≥ 10.0 µg/ml
KIWYPPIKLIRV | activity at ≥ 0.5 µg/ml

The substances below were run on antibody (assay: Pepscan ELISA, replacement analyses of three leads and consensus (Example-6)). Conditions: value is the antibody concentration.
Type: binding
Description: (§3) Lead peptides can also be derived from other type of libraries such as for example phage-display libraries.
as §1, §2
In example-6, different lead peptides were used to identify a consensus sequence. Each lead peptide was used in multiple replacement analyses (two rounds).

Substance | activity at
HWASPA | : activity at ≥ 0.5 µg/ml
KLITRY | : activity at ≥ 5.0 µg/ml
NVCSWA | : activity at ≥ 5.0 µg/ml
KLITRW | : activity at ≥ 10.0 µg/ml
YVCHWASSATRY | activity at 0.01 µg/ml
KSITRW | : activity at ≥ 5.0 µg/ml
NVCSWS | : activity at ≥ 10.0 µg/ml
AWWPSA | : activity at ≥ 5.0 µg/ml
ANWPSA | : activity at ≥ 10.0 µg/ml
NVCHWA | : activity at ≥0.5 µg/ml
NVCHWS | : activity at ≥ 5.0 µg/ml
SLITRW | : activity at ≥ 5.0 µg/ml
KLATRW | : activity at ≥ 5.0 µg/ml
NICSWS | : activity at ≥ 5.0 µg/ml
YVCHWA | : activity at ≥ 0.1 µg/ml
ANWSSA | : activity at ≥ 5.0 µg/ml
SSATRY | : activity at ≥ 1.0 µg/ml
ANAPSA | : activity at ≥ 5.0 µg/ml
YICHWA | : activity at ≥0.5 µg/ml
HNWPSA | : activity at ≥ 5.0 µg/ml
NICHWA | : activity at ≥ 1.0 µg/ml

These substances were tested on antibody (assay: Pepscan ELISA, replacement analyses of consensus sequence (Example-5)). Conditions: value is the antibody concentration.
Type: binding
Method: All 4550 dodecapeptides were ranked according to their binding activity. According to their ranking consensus sequences and motifs are identified. Initial methods of lead optimization that only use the sequence of the top 50 molecules have been described in Slootstra et al.(1995b; 1997). The present method uses all 4550 sequences. Firstly, the frequency and/or distribution of single amino acids and the dipeptide motifs OO, dipeptide motifs OXO and dipeptide motifs OXXO is determined using Microsoft Excel 4.0 (O, one of the 20 natural L-amino acids; X, any residue). Secondly, properties of the amino acids (hydrophobicity, charge etc.) are included in the analysis. […] This is done by substitution of building blocks that inhibit activity and include building blocks that improve binding activity.
as §1, §2
In example-5, a set of similar lead peptides were used to identify a consensus sequence. The consensus sequences were identified as discussed in materials and method. This sequence was used in the replacement analyses. ALIGNMENT OF LEAD PEPTIDES: • QNNMKLFRGCVP • RGIKWNEMTDQW • KLQQNPTFYPPV • TNNCKEFAGIVP • RGILTNIMKDQW • IVQNNPKFFRGA

Substance | activity at
ILTNNMGDWRG | activity at ≥ 0.05 µg/ml
ILQNNMPDFRG | activity at ≥ 0.5 µg/ml
ILTNNMPDWYG | activity at ≥ 0.05 µg/ml
ILTNNMGDWYG | activity at ≥ 0.01 µg/ml
ILTNNMKDFRG | activity at ≥ 0.5 µg/ml
ILQNNMKDFRG | activity at ≥ 1.0 µg/ml
ILTNNMPDWRG | activity at ≥ 0.1 µg/ml
ILQNNMKDWRG | activity at ≥ 0.5 µg/ml

The substances below were run on antibody (assay: Pepscan ELISA, lengthening and replacement analyses (Example-3)). Conditions: value is the antibody concentration.
Type: binding
Description: as §3, §1, §2
In example-3, lead peptides were identified through phage-display. Adjacent cysteines/glycines were added to improve binding activity. After obtained activity multiple replacement analyses were done as discussed in example-1.

Substance | activity at
CYETHYGCG | activity at ≥ 0.5 µg/ml
CTETHYGCG | activity at ≥ 1.0 µg/ml
CYETKFGCG | activity at ≥ 0.1 µg/ml
CSDTRKGC | activity at ≥ 10.0 µg/ml
CSETRKGCG | activity at ≥ 5.0 µg/ml
CYETKFGNG | activity at ≥ 0.05 µg/ml
CSDTHKGCG | activity at ≥ 5.0 µg/ml
CTDTRKGCG | activity at ≥ 5.0 µg/ml
CSDTRYGCG | activity at ≥ 5.0 µg/ml
DYETKFGCG | activity at ≥ 0.05 µg/ml
CTETKYGCG | activity at ≥ 0.5 µg/ml
DYETKFGNG | activity at ≥ 0.01 µg/ml
CTETHFGCG | activity at ≥ 0.5 µg/ml

Each substance was assayed on antibody (assay: Pepscan ELISA, replacement analyses (Example-2)). Conditions: value is the antibody concentration, antibody binds a non-linear epitope.
Type: binding

Substance | activity at
HNWPSAIGAFGL | activity at ≥ 5.0 µg/ml
HWASSAMGAFKL | activity at ≥ 0.5 µg/ml
ANAPSAIGAFGL | activity at ≥ 5.0 µg/ml
KYGSSGMGAFKL | activity at ≥ 0.05 µg/ml
KYFSSGMGAFKL | activity at ≥ 0.01 µg/ml
KYGSSAMGAFKL | activity at ≥ 0.1 µg/ml
ANWSSAIGAFKL | activity at ≥ 5.0 µg/ml
KWASSAIGAFKL | activity at ≥ 0.5 µg/ml
HYASSAIGAFKL | activity at ≥ 0.5 µg/ml
KYFSSAMGAFKL | activity at ≥ 0.05 µg/ml
HWASSAIGAFKL | activity at ≥ 1.0 µg/ml
AWWPSAIGAFGL | activity at ≥ 5.0 µg/ml
HWGSSAIGAFKL | activity at ≥ 0.5 µg/ml
ANWSSAIGAFGL | activity at ≥ 5.0 µg/ml
ANWPSAIGAFGL | activity at ≥ 10.0 µg/ml

Each substance was assayed on Monoclonal antibody 26/9 (assay: PEPSCAN-based ELISA, binding of peptides to antibody 26/9 (Example-1)). Conditions: value is the antibody 26/9 concentration at which the peptide shows binding activity in pepscan elisa.

Substance | activity at
CMCAAMNIRCYA | activity at ≥ 10.0 µg/ml
CGCAANINIMCYA | activity at ≥ 10.0 µg/ml
CGDAAMNIRCYA | activity at ≥ 10.0 µg/ml
EMDEEEDIMDYA | activity at ≥ 0.1 µg/ml
EGCAAMNIRCYA | activity at ≥ 10.0 µg/ml
EMDEEEDIPNYA | activity at ≥ 0.1 µg/ml
EMDEEEDVMNYA | activity at ≥ 0.1 µg/ml
CGCAAMDIRCYA | activity at ≥ 10.0 µg/ml
CGCEAMMIRCYA | activity at ≥ 10.0 µg/ml
CGCAAMNIRNYA | activity at ≥ 10.0 µg/ml
CGCAAENIRCYA | activity at ≥ 10.0 µg/ml
CGCAEMNIRCYA | activity at ≥ 10.0 µg/ml
